Literature values, collected in patent publication US20180051069A1, “COMPOSITIONS AND METHODS FOR TREATING ALLERGIC INFLAMMATION” (THE GENERAL HOSPITAL CORPORATION, priority 2015, published 2018).
One block for each compound: values may come before it.

Legend:
[1] = tested on: cultured mammalian cells
[2] = tested on: rat liver mannosidase I
[3] = tested on: mannosidase I
[4] = tested on: alpha-glucosidase
[5] = tested on: beta-glucosidase
[6] = tested on: alpha- or beta-galactosidase
[7] = molecular target: alpha-glucosidase amyloglucosidase (Aspergillus niger, UniProt P69328); settings: read-out: 50% inhibition
Chain of alpha-glucosidase amyloglucosidase (P69328 25-640): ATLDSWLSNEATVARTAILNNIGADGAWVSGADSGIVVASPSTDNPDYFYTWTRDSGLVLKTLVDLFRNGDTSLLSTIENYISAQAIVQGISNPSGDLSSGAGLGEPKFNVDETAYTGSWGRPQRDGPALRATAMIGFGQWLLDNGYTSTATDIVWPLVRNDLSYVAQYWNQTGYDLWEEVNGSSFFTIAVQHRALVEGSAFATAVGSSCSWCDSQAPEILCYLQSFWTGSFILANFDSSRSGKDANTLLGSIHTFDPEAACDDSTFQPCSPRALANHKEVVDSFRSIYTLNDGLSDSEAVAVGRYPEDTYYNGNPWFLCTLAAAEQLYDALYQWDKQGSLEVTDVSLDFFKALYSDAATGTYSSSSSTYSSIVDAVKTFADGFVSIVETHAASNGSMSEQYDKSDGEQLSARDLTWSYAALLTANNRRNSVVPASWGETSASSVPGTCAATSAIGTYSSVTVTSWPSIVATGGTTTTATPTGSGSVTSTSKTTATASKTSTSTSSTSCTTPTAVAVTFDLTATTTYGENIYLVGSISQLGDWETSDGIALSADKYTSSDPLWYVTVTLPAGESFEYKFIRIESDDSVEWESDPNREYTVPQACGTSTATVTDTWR

[8] = tested on: alpha- or beta-mannosidase
[9] = molecular target: T1, Golgi mannosidase II (Homo sapiens, UniProt Q16706)
T1 sequence (Q16706 1-1144): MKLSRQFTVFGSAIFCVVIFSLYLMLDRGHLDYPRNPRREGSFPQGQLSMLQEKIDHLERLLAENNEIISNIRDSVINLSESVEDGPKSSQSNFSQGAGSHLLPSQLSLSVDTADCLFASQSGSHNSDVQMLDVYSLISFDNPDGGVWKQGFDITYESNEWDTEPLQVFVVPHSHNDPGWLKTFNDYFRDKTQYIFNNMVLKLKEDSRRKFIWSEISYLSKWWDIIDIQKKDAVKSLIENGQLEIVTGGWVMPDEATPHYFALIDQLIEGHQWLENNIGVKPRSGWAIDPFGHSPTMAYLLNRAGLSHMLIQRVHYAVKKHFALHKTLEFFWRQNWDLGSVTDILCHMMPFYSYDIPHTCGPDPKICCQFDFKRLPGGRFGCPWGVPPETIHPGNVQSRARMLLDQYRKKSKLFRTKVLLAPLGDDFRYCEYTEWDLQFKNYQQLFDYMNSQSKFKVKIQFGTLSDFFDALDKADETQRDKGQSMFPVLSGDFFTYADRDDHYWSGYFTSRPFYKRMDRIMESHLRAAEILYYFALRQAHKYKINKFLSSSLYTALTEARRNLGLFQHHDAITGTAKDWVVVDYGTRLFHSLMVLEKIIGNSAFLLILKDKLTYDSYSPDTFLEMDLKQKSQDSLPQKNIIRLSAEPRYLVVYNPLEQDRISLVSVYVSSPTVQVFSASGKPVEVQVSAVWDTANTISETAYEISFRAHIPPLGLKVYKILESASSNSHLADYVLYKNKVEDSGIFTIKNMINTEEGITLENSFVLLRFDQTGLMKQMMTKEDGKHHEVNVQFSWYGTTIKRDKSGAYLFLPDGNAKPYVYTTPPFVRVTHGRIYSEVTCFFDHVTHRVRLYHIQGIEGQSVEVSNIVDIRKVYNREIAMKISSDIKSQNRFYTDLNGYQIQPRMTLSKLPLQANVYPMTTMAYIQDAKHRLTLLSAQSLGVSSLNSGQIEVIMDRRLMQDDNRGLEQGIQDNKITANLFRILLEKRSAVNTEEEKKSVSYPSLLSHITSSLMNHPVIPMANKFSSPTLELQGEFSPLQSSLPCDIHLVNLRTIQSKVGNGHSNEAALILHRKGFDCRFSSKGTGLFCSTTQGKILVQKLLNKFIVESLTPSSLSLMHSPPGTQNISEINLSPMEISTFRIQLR

[10] = tested on: rat epididymal α-mannosidase

inhibition of rat liver mannosidase I [2]: inhibitor
Compound: OC[C@H]1NC[C@@H](O)[C@@H](O)[C@@H]1O [Deoxymannojirimycin]
effect on synthesis of N-linked oligosaccharides ([1]; intact cells): blocked the synthesis of complex types of N-linked oligosaccharides

effect on mannosidase I [3]: inhibits
Compound: O=C1N[C@@H]2[C@@H](O)[C@@H](O)[C@H](O)[C@@H](CO)N2C1=O [Kifunensine]
concentration causing complete shift of N-linked oligosaccharides from complex chains to Man9(GlcNAc)2 structures ([1]; added to cultured mammalian cells): ≥ 1 µg/mL

inhibition of rat epididymal α-mannosidase [10]: reported to be an inhibitor
Compound: CS[C@@H]1[C@@H](N)[C@@H](O)[C@@H](O)[C@H]1O [Mannostatin A]

The remaining lines, values behind:

Compound: O[C@H]1[C@H](O)[C@@H](O)CN2CC[C@H](O)[C@H]12 [Castanospermine]
inhibition of alpha-glucosidase activities [4]: inhibits

Compound: OC[C@@H]1[C@@H](O)[C@H](O)[C@H]2[C@@H](O)CCN21 [Australine]
inhibition of beta-glucosidase [5]: does not inhibit
inhibition of alpha- or beta-galactosidase [6]: does not inhibit
IC50 [7]: 5.8 µM
inhibition of alpha- or beta-mannosidase [8]: does not inhibit

Compound: O[C@H]1[C@H]2[C@H](O)CCCN2C[C@H]1O [Swainsonine]
effect on mannosidase I [3]: no effect
inhibition of Golgi mannosidase II [9]: potent inhibitor
